Experimental data from patent US8183236B2, “Compounds with HIV-1 integrase inhibitory activity and use thereof as anti-HIV/AIDS therapeutics” (University of Southern California, priority 2007, dated 2012).

Tests used:
[1] = target: T1, HIV-1 integrase (wild-type IN) (Human immunodeficiency virus type 1 group M subtype B, UniProt P12497); assay: HIV-1 integrase 3′-processing assay (32P-labeled 21-mer, gel); format: biochemical
Description: (§1) The oligonucleotides 21 top, 5′-[…]-3′ (SEQ ID NO:1) and 21 bot, 5′-[…]-3′ (SEQ ID NO:2) were purchased from Norris Cancer Center Core Facility (University of Southern California) and purified by UV shadowing on polyacrylamide gel. To analyze the extent of 3′-processing and strand transfer using 5′-end labeled substrates, 21 top was 5′-end labeled using T4 polynucleotide kinase (Epicentre, Madison, Wis.) and γ [^32P]-ATP (Amersham Biosciences or ICN). The kinase was heat-inactivated and 21 bot was added in 1.5-molar excess. The mixture was heated at 95° C., allowed to cool slowly to room temperature, and run through a spin 25 mini-column (USA Scientific) to separate annealed double-stranded oligonucleotide from unincorporated material.
(§2) To determine the extent of 3′-processing and strand transfer, wild-type IN was preincubated at a final concentration of 200 nM with the inhibitor in reaction buffer (50 mM NaCl, 1 mM HEPES, pH 7.5, 50 μM EDTA, 50 μM dithiothreitol, 10% glycerol (w/v), 7.5 mM MnCl2, 0.1 mg/ml bovine serum albumin, 10 mM 2-mercaptoethanol, 10% dimethyl sulfoxide, and 25 mM MOPS, pH 7.2) at 30° C. for 30 min. Then, 20 nM of the 5′-end ^32P-labeled linear oligonucleotide substrate was added, and incubation was continued for an additional one hour. Reactions were quenched by the addition of an equal volume (16 μl) of loading dye (98% deionized formamide, 10 mM EDTA, 0.025% xylene cyanol and 0.025% bromophenol blue). An aliquot (5 μl) was electrophoresed on a denaturing 20% polyacrylamide gel (0.09 M tris-borate pH 8.3, 2 mM EDTA, 20% acrylamide, 8M urea).
(§3) Gels were dried, exposed in a PhosphorImager cassette, and analyzed using a Typhoon 8610 Variable Mode Imager (Amersham Biosciences) and quantitated using ImageQuant 5.2. Percent inhibition (% I) was calculated using the following equation: %I=100×[1−(D−C)/(N−C)]
(§4) where C, N, and D are the fractions of 21-mer substrate converted to 19-mer (3′-processing product) or strand transfer products for DNA alone, DNA plus IN, and IN plus drug, respectively. The IC50 values were determined by plotting the logarithm of drug concentration versus percent inhibition to obtain concentration that produced 50% inhibition. […]

[2] = target: T1, HIV-1 integrase (wild-type IN); assay: HIV-1 integrase strand transfer assay (32P-labeled 21-mer, gel); format: biochemical
Description: as §1, §2, §3, §4

[3] = unit inferred, read-out: IN inhibition activity 3′-processing
[4] = unit inferred, read-out: IN inhibition activity Strand transfer
[5] = wild-type IN 200 nM, 7.5 mM MnCl2, read-out: Inhibition of IN Catalytic Activities IC50 (μM) 3′-processing
[6] = wild-type IN 200 nM, 7.5 mM MnCl2, read-out: Inhibition of IN Catalytic Activities IC50 (μM) Strand Transfer

| Compound | IC50 [1, 3] | IC50 [2, 4] | IC50 [1, 5] | IC50 [2, 6] |
| --- | --- | --- | --- | --- |
| Cn1c(SCC(=O)NNC(=O)c2ccccc2O)nnc1-c1ccccc1 [AS9A1] | 64 ± 4 µM | 58 ± 2 µM |  |  |
| COc1ccc(-n2c(Cc3ccccc3)nnc2SCC(=O)NNC(=O)c2ccccc2O)cc1 [AS9A2] | 18 ± 1 µM | 17 ± 1 µM |  |  |
| Cc1cc(C)nc(SCc2nnc(SCC(=O)NNC(=O)c3ccccc3O)n2-c2ccccc2)n1 [AS9A3] | 51 ± 5 µM | 27 ± 8 µM |  |  |
| O=C(CSc1nnc(Cc2ccccc2)n1C1CCCCC1)NNC(=O)c1ccccc1O [AS9A4] | 21 ± 2 µM | 17 ± 1 µM |  |  |
| Cc1cc(C)nc(SCc2nnc(SCC(=O)NNC(=O)c3ccccc3O)n2C)n1 [AS9A5] | < 100 µM | < 100 µM |  |  |
| COc1ccccc1-n1c(SCC(=O)NNC(=O)c2ccccc2O)nnc1-c1ccccc1O [AS9A6] | 8 ± 1 µM | 6 ± 1 µM |  |  |
| O=C(CSc1nnc(-c2ccncc2)n1-c1ccc(F)cc1)NNC(=O)c1ccccc1O [AS9A7] | 49 ± 1 µM | 31 ± 2 µM |  |  |
| O=C(CSc1nnnn1-c1ccccc1)NNC(=O)c1ccc(O)cc1O [AS9A8] | 68 ± 3 µM | 61 ± 6 µM |  |  |
| O=C(CSc1nnc(-c2ccc(Cl)cc2)n1-c1ccccc1)NNC(=O)c1ccccc1O [AS9A9] | 11 ± 3 µM | 5 ± 1 µM |  |  |
| COc1ccc(-c2nnc(SCC(=O)NNC(=O)c3ccccc3O)n2-c2ccccc2)cc1OC [AS9A10] | 22 ± 1 µM | 21 ± 1 µM |  |  |
| O=C(CSc1nnc(-c2ccccc2O)n1Cc1ccccc1)NNC(=O)c1ccccc1O [AS9A11] | 15 ± 3 µM | 9 ± 2 µM |  |  |
| Cc1ccc(-n2c(SCC(=O)NNC(=O)c3ccccc3O)nnc2-c2ccccc2O)cc1 [AS9] | 5 ± 2 µM | 3 ± 1 µM |  |  |
| COc1ccc(OC)c(C2C(C(=O)c3ccc(Cl)cc3)=C(O)C(=O)N2CCCCCC(=O)O)c1 (stereo not shown) [AS16] | 88 µM | 40 ± 5 µM |  |  |
| O=C(CSc1nnc(-c2ccccc2)n1Cc1ccccc1)NNC(=O)c1ccccc1O [AS90] | 21 ± 6 µM | 9 ± 7 µM |  |  |
| Cc1ccc(-n2c(SCC(=O)NNC(=O)c3ccccc3O)nnc2-c2ccccc2)cc1 [AS120] | 23 ± 6 µM | 12 ± 8 µM |  |  |
| COc1ccc(C2C(C(=O)c3ccc(Br)cc3)=C(O)C(=O)N2c2cccc(C(F)(F)F)c2)cc1OC (stereo not shown) [AS134] | 47 ± 7 µM | 26 ± 9 µM |  |  |
| Cc1ccc(C(=O)C2=C(O)C(=O)N(c3ncc(S(=O)(=O)c4ccc([N+](=O)[O-])cc4)s3)C2c2cccc(Cl)c2)cc1 (stereo not shown) [AS139 BAS 02234865] | 27 ± 10 µM | 8 ± 2 µM |  |  |
| COc1ccc(C2C(C(=O)c3ccc(Br)cc3)=C(O)C(=O)N2CCc2ccccc2)cc1OC (stereo not shown) [AS143] | 60 ± 3 µM | 42 ± 10 µM |  |  |
| CCOc1ccc(C(=O)C2=C(O)C(=O)N(c3nccs3)C2c2ccc(O)c(OC)c2)cc1 (stereo not shown) [AS161] | 57 ± 27 µM | 30 ± 7 µM |  |  |
| COc1ccc(C2C(C(=O)c3ccc(Br)cc3)=C(O)C(=O)N2c2cc(C(C)(C)C)on2)cc1OC (stereo not shown) [AS171] | 45 ± 8 µM | 43 ± 26 µM |  |  |

| Compound | IC50 [1, 3] | IC50 [2, 4] | IC50 [1, 5] | IC50 [2, 6] |
| --- | --- | --- | --- | --- |
| O=C(CSc1nnc(Cc2ccccc2)n1-c1cccc(Cl)c1)NNC(=O)c1ccccc1O [AS230] | 9 ± 1 µM | 8 ± 4 µM |  |  |
| O=C(O)c1cccc(-c2ccc(/C=N/Nc3nnn[nH]3)o2)c1 [AV15A1] | > 100 µM | 96 ± 6 µM |  |  |
| N=C1NC(=O)/C(=C\c2ccc(-c3cccc(C(=O)O)c3)o2)S1 [AV15A2] | > 100 µM | 90 ± 17 µM |  |  |
| O=C(O)c1cccc(-c2ccc(/C=N/NC(=O)c3cccnc3)o2)c1 [AV15A4] | > 100 µM | 96 ± 6 µM |  |  |
| Nc1nonc1C(=O)N/N=C/c1ccc(-c2cccc(C(=O)O)c2)o1 [AV15A5] | > 100 µM | 88 ± 21 µM |  |  |
| O=C(O)c1cccc(-c2ccc(/C=C3\Sc4ccccc4C3=O)o2)c1 [AV15A6] | 76 µM | 24 µM |  |  |
| N#C/C(=C\c1ccc(-c2cccc(C(=O)O)c2)o1)c1nc2ccccc2[nH]1 [AV15A7] | > 100 µM | 17 µM |  |  |
| N#C/C(=C\c1ccc(-c2ccc(O)c(C(=O)O)c2)o1)c1nc2ccccc2[nH]1 [AV15A9] | 25 ± 10 µM | 14 ± 4 µM |  |  |
| N#C/C(=C\c1ccc(-c2ccc(Cl)c(C(=O)O)c2)o1)c1nc2ccccc2[nH]1 [AV15A10] | 76 µM | 30 µM |  |  |
| CC1=C(C#N)c2nc(N)c(C#N)c(C)c2/C1=C/c1ccc(-c2cccc(C(=O)O)c2)o1 [AV15A11] | 24 ± 16 µM | 20 ± 13 µM |  |  |
| O=C(O)c1cc(-c2ccc(/C=C/c3cc(C(F)(F)F)[nH]c(=O)n3)o2)ccc1Cl [AV15A12] | 74 ± 32 µM | 50 ± 25 µM |  |  |
| O=C(O)c1cc(-c2ccc(/C=N/Nc3nc4nonc4nc3Nc3ccccc3F)o2)ccc1Cl [AV15A14] | 16 ± 8 µM | 13 ± 5 µM |  |  |
| O=C(O)c1cc(-c2ccc(/C=N/Nc3nc4nonc4nc3Nc3ccc(F)cc3)o2)ccc1Cl [AV15A15] | 12 ± 6 µM | 6.5 ± 1 µM |  |  |
| O=C(O)c1cccc(-c2ccc(/C=N/Nc3nc(N4CCOCC4)nc(N4CCOCC4)n3)o2)c1 [AV15A16] | > 100 µM | > 100 µM |  |  |
| COc1cc(/C=N/Nc2nc3nonc3nc2Nc2ccccc2F)ccc1O [AV15A18] | 30 ± 12 µM | 17 ± 5 µM |  |  |
| COC(=O)c1ccc(/C=N/Nc2nc3nonc3nc2Nc2ccccc2F)cc1 [AV15A19] | > 100 µM | > 100 µM |  |  |
| O=C(O)c1cccc(-c2ccc(/C=N/NC(=O)c3ccc(C(=O)N/N=C/c4ccc(-c5cccc(C(=O)O)c5)o4)cc3)o2)c1 [AV15A20] | > 100 µM | 95 µM |  |  |
| Cc1cccc(Nc2nc3nonc3nc2N/N=C/c2ccc(-c3cccc(C(=O)O)c3)o2)c1 [AV15A21] | 10 ± 5 µM | 7 ± 2 µM |  |  |
| O=C(O)c1cc(-c2ccc(/C=c3\sc4nc5ccccc5n4c3=O)o2)ccc1Cl [AV15A22] | 23 ± 3 µM | 15 ± 4 µM |  |  |
| N#Cc1c(/N=C/c2ccc(-c3cccc(C(=O)O)c3)o2)sc2c1CCCC2 [AV15A23] | 89 ± 20 µM | 62 ± 7 µM |  |  |

| Compound | IC50 [1, 3] | IC50 [2, 4] | IC50 [1, 5] | IC50 [2, 6] |
| --- | --- | --- | --- | --- |
| O=C(O)c1cc(-c2ccc(/C=N/Nc3nc4nonc4nc3Nc3cccc(Br)c3)o2)ccc1O [AV15A24] | 5 ± 3 µM | 3.4 ± 2 µM |  |  |
| COc1cc(-c2nc3ccccn3c2/N=C/c2ccc(-c3ccc(Cl)c(C(=O)O)c3)o2)ccc1O [AV15A25] | > 100 µM | > 100 µM |  |  |
| CN(C)c1nc(NCc2ccccc2)nc(N/N=C/c2ccc(-c3cccc(C(=O)O)c3)o2)n1 [AV15A26] | > 100 µM | 88 µM |  |  |
| O=C(N/N=C/c1ccc(-c2ccc(Cl)cc2)o1)c1ccccc1 [AV15A29] | > 100 µM |  |  |  |
| Cc1cccc(Nc2nc3nonc3nc2N/N=C/c2ccc(-c3ccccc3Cl)o2)c1C [AV15A33] | > 100 µM |  |  |  |
| O=C(O)c1cccc(-c2ccc(/C=N/Nc3nc(Nc4ccccc4)nc(Nc4ccccc4)n3)o2)c1 [AV15A42] | 89 ± 19 µM |  |  |  |
| N#C/C(=C\c1ccc(-c2cc(Cl)ccc2C(=O)O)o1)c1nc2ccccc2[nH]1 [AV15A52] |  | 51 µM |  |  |
| COC(=O)c1ccc(C(=O)OC)c(NC(=O)c2ccc(C)c([N+](=O)[O-])c2)c1 [Compound X19] |  |  | 92 µM |  |
| CCOC(=O)CCc1cc(C(=O)OCC)c(CCC(=O)OCC)cc1C(=O)OCC [Compound X35] |  |  |  | 94 µM |
| Cc1ccc(C=C2SC(=S)N(CCC(=O)Nc3cccc(C(=O)O)c3)C2=O)cc1 [Compound X100] |  |  |  | > 100 µM |
| COc1ccccc1C=C1SC(=S)N(CCC(=O)Nc2ccc(O)cc2)C1=O [Compound X118] |  |  | 99 ± 3 µM |  |
| O=C(CCCN1C(=O)/C(=C/c2cccs2)SC1=S)Nc1nc2ccccc2s1 [Compound X178] |  |  | 98 ± 5 µM |  |
| Cc1nc(=O)c(-c2ccccc2)c(C)n1-c1ccc(C(=O)O)c(O)c1 [Compound X181] |  |  |  | 73 ± 24 µM |
| O=C(NN1C(=O)/C(=C/c2ccc(Br)cc2)SC1=S)c1ccccc1O [Compound X220] |  |  |  | 27 ± 6 µM |
| O=C1C(=Cc2c(NCCO)nc3ccccn3c2=O)SC(=S)N1Cc1ccco1 [Compound X281] |  |  | > 100 µM |  |
| O=C(Nc1nncs1)c1c(O)c2ccccc2n(Cc2ccccc2)c1=O [LM33] |  |  |  | 36 µM |
| Nc1nonc1-c1nc2ccccc2n1CC(=O)N/N=C/c1ccc(-c2cccc(C(=O)O)c2)o1 [NST20] |  |  |  | 68 µM |
| COC(=O)C1=C(C(=O)OC)SC(=C2C(=S)C(C)(C)N(C(=O)c3cccnc3)c3ccc(C)cc32)S1 [RT25] |  |  | > 100 µM |  |
| C=CCn1c(=O)c(C(=O)Nc2ccccc2OC)c(O)c2ccccc21 [XR3] |  |  |  | 25 µM |
| CCn1c(=O)c(C(=O)Nc2ccccc2C(=O)OC)c(O)c2ccccc21 [XR15] |  |  |  | 9.5 µM |
